Experimental data reported in ChEMBL document CHEMBL6078668, “Synthesis and biological evaluation of lappaconitine analogues as potential anti-neuroinflammatory agents by side chain modification and scaffold hopping strategy” (Bioorg Med Chem, 2025).

Experiments:
BV-2 = experiment: Anti-neuroinflammatory activity against LPS-stimulated C57BL/6 mouse BV-2 cells assessed as inhibition of NO release at 30 uM preincubated with compound for 4 hrs followed by LPS addition and measured after 24 hrs by Griess reagent based assay relative to control; format: functional; conditions: C57BL/6, BV-2, time 28 hrs
[1] = Cytotoxicity against C57BL/6 mouse BV-2 cells assessed as survival rate at 30 uM incubated for 24 hrs by MTT assay relative to control; format: toxicity, cell-based; conditions: read-out: Survival

| Compound | inhibition at 30 µM (BV-2) | viability at 24 h, 30 µM [1] |
| --- | --- | --- |
| CCN1C[C@]2(COC)CC[C@H](OC)[C@]34C1[C@@H](C[C@H]23)[C@@]1(O)C[C@H](OC)[C@H]2C[C@@H]4[C@]1(O)[C@H]2OC(=O)c1ccccc1N | 19.4% | 101% |
| CCN1C[C@]2(OC(=O)c3ccccc3NC(=O)c3cccc(OC)c3)CC[C@H](OC)[C@]34C1[C@@H](C[C@H]23)[C@@]1(O)C[C@H](OC)[C@H]2C[C@@H]4[C@]1(O)[C@H]2OC | 44.9% | 107% |
| CCOc1ccc(C(=O)Nc2ccccc2C(=O)O[C@@]23CC[C@H](OC)[C@]45C([C@@H](C[C@H]24)[C@@]2(O)C[C@H](OC)[C@H]4C[C@@H]5[C@]2(O)[C@H]4OC)N(CC)C3)cc1 | 53.6% | 101% |
| CCN1C[C@]2(OC(=O)c3ccccc3NC(=O)c3cccc(C#N)c3)CC[C@H](OC)[C@]34C1[C@@H](C[C@H]23)[C@@]1(O)C[C@H](OC)[C@H]2C[C@@H]4[C@]1(O)[C@H]2OC | 12.8% | 101% |
| CCN1C[C@]2(OC(=O)c3ccccc3NC(=O)c3ccc(C)cc3C)CC[C@H](OC)[C@]34C1[C@@H](C[C@H]23)[C@@]1(O)C[C@H](OC)[C@H]2C[C@@H]4[C@]1(O)[C@H]2OC | 16% | 104% |
| CCN1C[C@]2(OC(=O)c3ccccc3NC(=O)S(=O)(=O)c3ccc4c(c3)OCC4)CC[C@H](OC)[C@]34C1[C@@H](C[C@H]23)[C@@]1(O)C[C@H](OC)[C@H]2C[C@@H]4[C@]1(O)[C@H]2OC | 9.9% | 96.3% |
| CCN1C[C@]2(OC(=O)c3ccccc3NC(=O)CN(C)C)CC[C@H](OC)[C@]34C1[C@@H](C[C@H]23)[C@@]1(O)C[C@H](OC)[C@H]2C[C@@H]4[C@]1(O)[C@H]2OC | 20.2% | 94.5% |
| CCN1C[C@]2(OC(=O)c3ccccc3NC(=O)c3ccccc3)CC[C@H](OC)[C@]34C1[C@@H](C[C@H]23)[C@@]1(O)C[C@H](OC)[C@H]2C[C@@H]4[C@]1(O)[C@H]2OC | 36% | 107% |
| CCN1C[C@]2(COC(=O)c3ccccc3NS(=O)(=O)c3ccc(Br)s3)CC[C@H](OC)[C@]34C1[C@@H](C[C@H]23)[C@@]1(O)C[C@H](OC)[C@H]2C[C@@H]4[C@]1(O)[C@H]2OC | 34.7% | 97.8% |
| COC(=O)c1ccccc1NC(=O)c1ccc(Cl)s1 | 48.6% | 93.5% |
| CCCc1ccc(S(=O)(=O)C(=O)Nc2ccccc2C(=O)O[C@@]23CC[C@H](OC)[C@]45C([C@@H](C[C@H]24)[C@@]2(O)C[C@H](OC)[C@H]4C[C@@H]5[C@]2(O)[C@H]4OC)N(CC)C3)cc1 | 43.4% | 92.3% |
| CCN1C[C@]2(OC(=O)c3ccccc3NC(=O)S(=O)(=O)c3ccc(Br)cc3)CC[C@H](OC)[C@]34C1[C@@H](C[C@H]23)[C@@]1(O)C[C@H](OC)[C@H]2C[C@@H]4[C@]1(O)[C@H]2OC | 40.8% | 109% |
| CCN1C[C@]2(OC(=O)c3ccccc3NC(=O)S(=O)(=O)c3ccccc3)CC[C@H](OC)[C@]34C1[C@@H](C[C@H]23)[C@@]1(O)C[C@H](OC)[C@H]2C[C@@H]4[C@]1(O)[C@H]2OC | 31.8% | 97.2% |
| CCN1C[C@]2(OC(=O)c3ccccc3NC(=O)S(=O)(=O)c3cccnc3Cl)CC[C@H](OC)[C@]34C1[C@@H](C[C@H]23)[C@@]1(O)C[C@H](OC)[C@H]2C[C@@H]4[C@]1(O)[C@H]2OC | 56.5% | 106% |
| CCN1C[C@]2(OC(=O)c3ccccc3NC(=O)S(=O)(=O)c3cccc4ccccc34)CC[C@H](OC)[C@]34C1[C@@H](C[C@H]23)[C@@]1(O)C[C@H](OC)[C@H]2C[C@@H]4[C@]1(O)[C@H]2OC | 30.5% | 105% |
| CCN1C[C@]2(OC(=O)c3ccccc3NC(=O)c3cccc(F)c3)CC[C@H](OC)[C@]34C1[C@@H](C[C@H]23)[C@@]1(O)C[C@H](OC)[C@H]2C[C@@H]4[C@]1(O)[C@H]2OC | 11% | 107% |
| CCN1C[C@]2(OC(=O)c3ccccc3NC(=O)S(=O)(=O)c3cc(Cl)ccc3OC)CC[C@H](OC)[C@]34C1[C@@H](C[C@H]23)[C@@]1(O)C[C@H](OC)[C@H]2C[C@@H]4[C@]1(O)[C@H]2OC | 6% | 94.9% |
| CCN1C[C@]2(OC(=O)c3ccccc3NC(=O)CC(C)C)CC[C@H](OC)[C@]34C1[C@@H](C[C@H]23)[C@@]1(O)C[C@H](OC)[C@H]2C[C@@H]4[C@]1(O)[C@H]2OC | 16.7% | 102% |
| CCN1C[C@]2(OC(=O)c3ccccc3NC(=O)c3ccc(OC)c(OC)c3)CC[C@H](OC)[C@]34C1[C@@H](C[C@H]23)[C@@]1(O)C[C@H](OC)[C@H]2C[C@@H]4[C@]1(O)[C@H]2OC | 14.3% | 102% |

| Compound | inhibition at 30 µM (BV-2) | viability at 24 h, 30 µM [1] |
| --- | --- | --- |
| CCN1C[C@]2(OC(=O)c3ccccc3NC(=O)S(=O)(=O)c3cc(Br)c(Cl)s3)CC[C@H](OC)[C@]34C1[C@@H](C[C@H]23)[C@@]1(O)C[C@H](OC)[C@H]2C[C@@H]4[C@]1(O)[C@H]2OC | 29.4% | 94.3% |
| CCN1C[C@]2(OC(=O)c3ccccc3NC(=O)S(=O)(=O)c3ccccc3OC)CC[C@H](OC)[C@]34C1[C@@H](C[C@H]23)[C@@]1(O)C[C@H](OC)[C@H]2C[C@@H]4[C@]1(O)[C@H]2OC | 15.2% | 103% |
| CCCCOC(=O)c1ccccc1NS(=O)(=O)c1ccc(Br)s1 | 34.6% | 104% |
| CCN1C[C@]2(OC(=O)c3ccccc3NC(=O)c3ccccc3F)CC[C@H](OC)[C@]34C1[C@@H](C[C@H]23)[C@@]1(O)C[C@H](OC)[C@H]2C[C@@H]4[C@]1(O)[C@H]2OC | 17.3% | 105% |
| CCN1C[C@]2(OC(=O)c3ccccc3NC(=O)c3ccc(C#N)cc3)CC[C@H](OC)[C@]34C1[C@@H](C[C@H]23)[C@@]1(O)C[C@H](OC)[C@H]2C[C@@H]4[C@]1(O)[C@H]2OC | 6.6% | 99.5% |
| CCN1C[C@]2(OC(=O)c3ccccc3NC(=O)S(=O)(=O)c3ccc(F)cc3)CC[C@H](OC)[C@]34C1[C@@H](C[C@H]23)[C@@]1(O)C[C@H](OC)[C@H]2C[C@@H]4[C@]1(O)[C@H]2OC | 40.6% | 109% |
| CCN1C[C@]2(OC(=O)c3ccccc3NC(=O)c3ccccc3Br)CC[C@H](OC)[C@]34C1[C@@H](C[C@H]23)[C@@]1(O)C[C@H](OC)[C@H]2C[C@@H]4[C@]1(O)[C@H]2OC | 32.5% | 106% |
| CCN1C[C@]2(OC(=O)c3ccccc3NC(=O)S(=O)(=O)c3ccc(C)c(Cl)c3)CC[C@H](OC)[C@]34C1[C@@H](C[C@H]23)[C@@]1(O)C[C@H](OC)[C@H]2C[C@@H]4[C@]1(O)[C@H]2OC | 25.2% | 94.8% |
| CCN1C[C@]2(OC(=O)c3ccccc3NC(=O)c3ccccc3OC)CC[C@H](OC)[C@]34C1[C@@H](C[C@H]23)[C@@]1(O)C[C@H](OC)[C@H]2C[C@@H]4[C@]1(O)[C@H]2OC | 34.2% | 97% |
| COC(=O)c1ccccc1NS(=O)(=O)c1cccc(F)c1 | 38.5% | 106% |
| CCN1C[C@]2(OC(=O)c3ccccc3NC(=O)S(=O)(=O)c3ccc(F)cc3F)CC[C@H](OC)[C@]34C1[C@@H](C[C@H]23)[C@@]1(O)C[C@H](OC)[C@H]2C[C@@H]4[C@]1(O)[C@H]2OC | 47.5% | 103% |
| CCN1C[C@]2(OC(=O)c3ccccc3NC(=O)c3ccccc3I)CC[C@H](OC)[C@]34C1[C@@H](C[C@H]23)[C@@]1(O)C[C@H](OC)[C@H]2C[C@@H]4[C@]1(O)[C@H]2OC | 13.1% | 109% |
| CCCCOC(=O)c1ccccc1NS(=O)(=O)c1cccc(F)c1 | 50.9% | 106% |
| CCN1C[C@]2(OC(=O)c3ccccc3NC(=O)S(=O)(=O)c3ccc4ccccc4c3)CC[C@H](OC)[C@]34C1[C@@H](C[C@H]23)[C@@]1(O)C[C@H](OC)[C@H]2C[C@@H]4[C@]1(O)[C@H]2OC | 53.1% | 100% |
| CCN1C[C@]2(OC(=O)c3ccccc3NC(=O)S(=O)(=O)c3ccc(C#N)cc3)CC[C@H](OC)[C@]34C1[C@@H](C[C@H]23)[C@@]1(O)C[C@H](OC)[C@H]2C[C@@H]4[C@]1(O)[C@H]2OC | 38.8% | 103% |
| CCN1C[C@]2(OC(=O)c3ccccc3NC(=O)S(=O)(=O)/C=C/c3ccccc3)CC[C@H](OC)[C@]34C1[C@@H](C[C@H]23)[C@@]1(O)C[C@H](OC)[C@H]2C[C@@H]4[C@]1(O)[C@H]2OC | 29.4% | 108% |
| CCN1C[C@]2(OC(=O)c3ccccc3NC(=O)c3cccc(Cl)c3)CC[C@H](OC)[C@]34C1[C@@H](C[C@H]23)[C@@]1(O)C[C@H](OC)[C@H]2C[C@@H]4[C@]1(O)[C@H]2OC | 12.9% | 104% |
| CCN1C[C@]2(OC(=O)c3ccccc3NC(=O)S(=O)(=O)c3cc(F)ccc3F)CC[C@H](OC)[C@]34C1[C@@H](C[C@H]23)[C@@]1(O)C[C@H](OC)[C@H]2C[C@@H]4[C@]1(O)[C@H]2OC | 53.7% | 105% |
